In patent US11963519B2 (priority 2022, dated 2024):
Where “and” joins values, the source holds several entries; their conditions need not be identical. Identical values can stand only once.

Tests used:
CD-1 mice [1] = type: in vivo, mouse
CD-1 mice [2] = conditions: mouse, in vivo
CD-1 mice [3] = type: in vivo, mouse; remark: listed apart in the source

Row | Compound | exploratory behaviors in open-field test of BCG+PTX model mice (CD-1 mice [1]; mouse, in vivo) | exploratory behaviors in open-field test of depression model mice (CD-1 mice [1]; mouse, in vivo) | number of times of zone crossing in open-field test of BCG+PTX model mice (CD-1 mice [1]; mouse, in vivo) | number of times of zone crossing in open-field test of depression model mice (CD-1 mice [1]; mouse, in vivo) | total movement distance in open-field test of BCG+PTX model mice (CD-1 mice [1]; mouse, in vivo) | total movement distance in open-field test of depression model mice (CD-1 mice [1]; mouse, in vivo) | sucrose preference rate in depression model mice (CD-1 mice [2]) | motionlessness time (behavioral despair state) in TST of BCG+PTX model mice (CD-1 mice [3]; mouse, in vivo) | Open-field test Number of times of exploratory behaviors (CD-1 mice [1]; n=12) | Open-field test Number of times of zone crossing (CD-1 mice [1]; n=12) | Open-field test Total movement distance (CD-1 mice [1]; n=12) | TST Motionlessness time (CD-1 mice [3]; n=12)
1 | CN(C)CCCN1c2ccccc2CCc2ccccc21 [IMI, imipramine] | increased | decreased | increased | decreased | increased | decreased | significantly reduce | improved |  |  |  | 
2 | Bacille Calmette-Guerin [BCG] |  |  |  |  |  |  |  |  | 23.83 ± 12.41 and 38.92 ± 15.96 | 104.91 ± 35.1528 and 138.73 ± 23.44 | 582.74 ± 211.42 cm and 734.20 ± 349.87 cm | 122.60 ± 34.11 s and 98.84 ± 21.35 s
